ChEMBL document CHEMBL4800722, “Data for DCP probe BI 605906” (2021)
Activity calls are given as the source filed them. The rule behind the calls is not given here.

Columns and labels:
[1] = target: Mitogen-activated protein kinase kinase kinase 2 (Homo sapiens) (UniProt Q9Y2U5); settings: Compound concentration 1.0 uM
[2] = target: Serine/threonine-protein kinase Nek8 (Homo sapiens) (UniProt Q86SG6); settings: Compound concentration 1.0 uM
[3] = target: Mitogen-activated protein kinase kinase kinase 14 (Homo sapiens) (UniProt Q99558); settings: Compound concentration 1.0 uM
[4] = target: Serine/threonine-protein kinase B-raf (Homo sapiens) (UniProt P15056); assay: BRAF Invitrogen Lab (UK) kinase screen (BI); settings: Compound concentration 1.0 uM
[5] = target: Fibroblast growth factor receptor 3 (Homo sapiens) (UniProt P22607); settings: Compound concentration 1.0 uM
[6] = target: Serine/threonine-protein kinase 16 (Homo sapiens) (UniProt O75716); settings: Compound concentration 1.0 uM
[7] = target: Ribosomal protein S6 kinase alpha-5 (Homo sapiens) (UniProt O75582); assay: MSK1 DUNDEE kinase screen (BI); settings: Compound concentration 10.0 uM
[8] = target: Death-associated protein kinase 3 (Homo sapiens) (UniProt O43293); settings: Compound concentration 1.0 uM
[9] = target: Protein kinase C theta type (Homo sapiens) (UniProt Q04759); settings: Compound concentration 1.0 uM
[10] = target: Rhodopsin kinase GRK7 (Homo sapiens) (UniProt Q8WTQ7); settings: Compound concentration 1.0 uM
[11] = target: Inhibitor of nuclear factor kappa-B kinase subunit beta (Homo sapiens, UniProt O14920); assay: Biochemical assay
[12] = target: Myosin-IIIa (Homo sapiens) (UniProt Q8NEV4); settings: Compound concentration 1.0 uM
[13] = target: Ephrin type-B receptor 2 (Homo sapiens) (UniProt P29323); settings: Compound concentration 1.0 uM
[14] = target: Activin receptor type-2A (Homo sapiens) (UniProt P27037); settings: Compound concentration 1.0 uM
[15] = target: Proto-oncogene tyrosine-protein kinase Src (Homo sapiens) (UniProt P12931); assay: SRC DUNDEE kinase screen (BI); settings: Gallus gallus; Compound concentration 10.0 uM
[16] = target: 3-hydroxy-3-methylglutaryl-coenzyme A reductase (Rattus norvegicus) (UniProt P51639); assay: HMGCOARED Eurofins SafetyScreen44 (BI); settings: Compound concentration 10.0 uM
[17] = target: Protein kinase C gamma type (Homo sapiens) (UniProt P05129); assay: PRKCG Invitrogen Lab (UK) kinase screen (BI); settings: Compound concentration 1.0 uM
[18] = target: Ribosomal protein S6 kinase alpha-2 (Homo sapiens) (UniProt Q15349); settings: Compound concentration 1.0 uM
[19] = target: Mitogen-activated protein kinase 1 (Homo sapiens) (UniProt P28482); assay: MAPK2ERK2 DUNDEE kinase screen (BI); settings: Mus musculus; Compound concentration 10.0 uM
[20] = target: Kappa-type opioid receptor (Homo sapiens) (UniProt P41145); settings: Compound concentration 10.0 uM
[21] = target: Phosphatidylinositol 3-kinase regulatory subunit beta/Phosphatidylinositol 4,5-bisphosphate 3-kinase catalytic subunit beta isoform (Homo sapiens) (UniProt P42338+O00459); assay: PIK3CB/PIK3R2 Invitrogen Lab (UK) kinase screen (BI); type: protein-complex assay; settings: Compound concentration 1.0 uM
[22] = target: Beta-2 adrenergic receptor (Homo sapiens) (UniProt P07550); settings: Compound concentration 10.0 uM
[23] = target: Thromboxane-A synthase (Homo sapiens) (UniProt P24557); assay: THRO SYN(HU) Eurofins SafetyScreen44 (BI); settings: Compound concentration 10.0 uM
[24] = target: Misshapen-like kinase 1 (Homo sapiens) (UniProt Q8N4C8); settings: Compound concentration 1.0 uM
[25] = target: CDK18/Cyclin Y (Homo sapiens) (UniProt Q07002+Q8ND76); settings: Compound concentration 1.0 uM
[26] = target: Phospholipase A2 (Sus scrofa) (UniProt A0A8D1VEY7); settings: Compound concentration 10.0 uM
[27] = target: Ephrin type-A receptor 3 (Homo sapiens) (UniProt P29320); assay: EPHA3 Invitrogen Lab (UK) kinase screen (BI); settings: Compound concentration 1.0 uM
[28] = target: MAP/microtubule affinity-regulating kinase 3 (Homo sapiens) (UniProt P27448); settings: Compound concentration 1.0 uM
[29] = target: Tyrosine-protein kinase BTK (Homo sapiens) (UniProt Q06187)
[30] = target: Serine/threonine-protein kinase D2 (Homo sapiens) (UniProt Q9BZL6); settings: Compound concentration 1.0 uM
[31] = target: Serine/threonine-protein kinase Nek2 (Homo sapiens) (UniProt P51955); settings: Compound concentration 1.0 uM
[32] = target: Tyrosine-protein kinase JAK3 (Homo sapiens) (UniProt P52333)
[33] = target: RAC-alpha serine/threonine-protein kinase (Homo sapiens) (UniProt P31749)
[34] = target: Tyrosine-protein kinase FRK (Homo sapiens) (UniProt P42685); settings: Compound concentration 1.0 uM
[35] = target: Fibroblast growth factor receptor 4 (Homo sapiens) (UniProt P22455); settings: Compound concentration 1.0 uM
[36] = target: Cyclin-dependent kinase 9 (Homo sapiens) (UniProt P50750); settings: Compound concentration 1.0 uM
[37] = target: Serine/threonine-protein kinase BRSK1 (Homo sapiens) (UniProt Q8TDC3); settings: Compound concentration 1.0 uM
[38] = target: Calcium/calmodulin-dependent protein kinase kinase 2 (Homo sapiens) (UniProt Q96RR4); settings: Compound concentration 1.0 uM
[39] = target: Serine/threonine-protein kinase MARK1 (Homo sapiens) (UniProt Q9P0L2); settings: Compound concentration 1.0 uM
[40] = target: Maternal embryonic leucine zipper kinase (Homo sapiens) (UniProt Q14680); assay: MELK Invitrogen Lab (UK) kinase screen (BI); settings: Compound concentration 1.0 uM
[41] = target: Protein kinase C alpha type (Homo sapiens) (UniProt P17252); assay: PRKCA Invitrogen Lab (UK) kinase screen (BI); settings: Compound concentration 1.0 uM

Chain of Tyrosine-protein kinase BTK (Homo sapiens) (Q06187 whole entry): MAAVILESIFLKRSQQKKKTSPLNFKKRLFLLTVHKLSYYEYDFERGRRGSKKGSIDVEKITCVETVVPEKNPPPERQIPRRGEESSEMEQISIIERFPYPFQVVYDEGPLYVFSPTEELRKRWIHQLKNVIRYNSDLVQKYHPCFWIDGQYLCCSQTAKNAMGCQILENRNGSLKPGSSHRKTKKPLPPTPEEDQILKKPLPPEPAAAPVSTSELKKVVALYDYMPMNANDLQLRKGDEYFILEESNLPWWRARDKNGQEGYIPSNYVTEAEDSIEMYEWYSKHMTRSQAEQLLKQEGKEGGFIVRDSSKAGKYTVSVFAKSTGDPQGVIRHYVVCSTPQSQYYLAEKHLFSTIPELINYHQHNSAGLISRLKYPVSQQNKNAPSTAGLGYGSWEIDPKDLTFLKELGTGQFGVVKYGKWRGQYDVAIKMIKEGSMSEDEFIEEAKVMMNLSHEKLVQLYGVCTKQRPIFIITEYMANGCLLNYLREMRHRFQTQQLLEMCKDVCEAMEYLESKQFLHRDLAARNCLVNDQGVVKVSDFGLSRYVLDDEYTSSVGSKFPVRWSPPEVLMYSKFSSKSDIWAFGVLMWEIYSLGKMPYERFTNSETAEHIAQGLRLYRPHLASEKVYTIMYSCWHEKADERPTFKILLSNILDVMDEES
Chain of Tyrosine-protein kinase JAK3 (Homo sapiens) (P52333 whole entry): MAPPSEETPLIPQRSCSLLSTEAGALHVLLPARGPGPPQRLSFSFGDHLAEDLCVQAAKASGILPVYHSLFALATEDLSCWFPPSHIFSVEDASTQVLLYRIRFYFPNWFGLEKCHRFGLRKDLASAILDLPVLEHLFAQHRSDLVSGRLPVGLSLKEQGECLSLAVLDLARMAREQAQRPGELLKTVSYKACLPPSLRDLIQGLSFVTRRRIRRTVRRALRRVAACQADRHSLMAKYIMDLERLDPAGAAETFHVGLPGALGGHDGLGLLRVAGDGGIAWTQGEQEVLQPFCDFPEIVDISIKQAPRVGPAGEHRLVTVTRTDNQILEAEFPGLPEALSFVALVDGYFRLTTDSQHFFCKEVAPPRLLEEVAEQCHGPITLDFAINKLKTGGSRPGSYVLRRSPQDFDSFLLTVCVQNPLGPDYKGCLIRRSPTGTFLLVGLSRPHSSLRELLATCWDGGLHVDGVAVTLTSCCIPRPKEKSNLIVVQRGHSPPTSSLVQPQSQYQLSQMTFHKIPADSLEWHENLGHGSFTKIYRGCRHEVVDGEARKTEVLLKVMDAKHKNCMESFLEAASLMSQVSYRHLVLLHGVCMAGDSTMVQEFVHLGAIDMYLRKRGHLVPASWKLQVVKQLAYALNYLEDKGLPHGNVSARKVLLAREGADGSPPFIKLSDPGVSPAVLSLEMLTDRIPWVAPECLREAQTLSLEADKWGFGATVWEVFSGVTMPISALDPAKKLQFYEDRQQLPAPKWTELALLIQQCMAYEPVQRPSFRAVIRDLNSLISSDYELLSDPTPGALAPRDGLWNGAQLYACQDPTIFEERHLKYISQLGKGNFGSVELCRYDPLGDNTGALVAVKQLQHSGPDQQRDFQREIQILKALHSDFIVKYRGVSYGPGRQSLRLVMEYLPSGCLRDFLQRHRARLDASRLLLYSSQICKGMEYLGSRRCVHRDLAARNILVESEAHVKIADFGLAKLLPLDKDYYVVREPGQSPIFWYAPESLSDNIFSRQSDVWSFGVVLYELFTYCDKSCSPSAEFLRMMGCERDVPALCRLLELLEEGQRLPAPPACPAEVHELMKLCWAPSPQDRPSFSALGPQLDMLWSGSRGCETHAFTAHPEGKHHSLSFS
Chain of RAC-alpha serine/threonine-protein kinase (Homo sapiens) (P31749 whole entry): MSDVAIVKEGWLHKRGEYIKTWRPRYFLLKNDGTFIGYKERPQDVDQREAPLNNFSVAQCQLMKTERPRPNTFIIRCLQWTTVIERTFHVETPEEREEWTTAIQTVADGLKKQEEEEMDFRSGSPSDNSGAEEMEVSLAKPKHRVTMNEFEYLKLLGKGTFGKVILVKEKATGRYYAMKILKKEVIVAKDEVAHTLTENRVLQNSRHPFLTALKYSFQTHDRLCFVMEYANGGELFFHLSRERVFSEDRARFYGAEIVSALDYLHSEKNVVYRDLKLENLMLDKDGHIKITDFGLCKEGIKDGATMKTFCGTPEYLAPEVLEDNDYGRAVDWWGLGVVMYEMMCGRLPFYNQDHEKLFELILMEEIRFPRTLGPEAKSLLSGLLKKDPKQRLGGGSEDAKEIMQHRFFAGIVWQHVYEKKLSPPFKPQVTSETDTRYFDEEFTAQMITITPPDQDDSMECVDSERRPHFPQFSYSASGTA
Chain of Beta-2 adrenergic receptor (Homo sapiens) (P07550 whole entry, looked up): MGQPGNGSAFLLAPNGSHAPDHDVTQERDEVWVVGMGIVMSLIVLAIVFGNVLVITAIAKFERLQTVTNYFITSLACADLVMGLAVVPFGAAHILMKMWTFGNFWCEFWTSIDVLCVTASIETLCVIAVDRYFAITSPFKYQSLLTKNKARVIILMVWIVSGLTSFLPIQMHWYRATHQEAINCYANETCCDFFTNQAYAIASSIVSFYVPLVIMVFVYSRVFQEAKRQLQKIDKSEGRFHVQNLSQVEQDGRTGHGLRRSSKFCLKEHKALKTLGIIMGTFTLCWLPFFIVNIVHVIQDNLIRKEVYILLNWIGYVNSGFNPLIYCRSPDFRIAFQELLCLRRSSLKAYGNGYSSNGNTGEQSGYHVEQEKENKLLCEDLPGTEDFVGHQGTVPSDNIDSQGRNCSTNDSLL
Chain of Activin receptor type-2A (Homo sapiens) (P27037 whole entry): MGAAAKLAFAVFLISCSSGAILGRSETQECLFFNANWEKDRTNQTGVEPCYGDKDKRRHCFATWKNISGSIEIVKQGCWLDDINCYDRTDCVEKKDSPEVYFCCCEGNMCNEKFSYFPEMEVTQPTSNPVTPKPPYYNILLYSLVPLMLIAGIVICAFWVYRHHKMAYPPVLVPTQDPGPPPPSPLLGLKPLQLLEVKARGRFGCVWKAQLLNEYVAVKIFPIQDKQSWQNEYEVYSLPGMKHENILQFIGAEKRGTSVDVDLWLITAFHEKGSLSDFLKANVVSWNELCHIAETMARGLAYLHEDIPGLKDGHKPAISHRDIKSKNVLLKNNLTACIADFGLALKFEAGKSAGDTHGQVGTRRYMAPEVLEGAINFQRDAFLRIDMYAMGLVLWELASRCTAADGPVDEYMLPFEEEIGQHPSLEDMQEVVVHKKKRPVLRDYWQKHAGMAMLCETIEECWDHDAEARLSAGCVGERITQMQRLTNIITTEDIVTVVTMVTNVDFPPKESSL
Chain of Serine/threonine-protein kinase D2 (Homo sapiens) (Q9BZL6 whole entry): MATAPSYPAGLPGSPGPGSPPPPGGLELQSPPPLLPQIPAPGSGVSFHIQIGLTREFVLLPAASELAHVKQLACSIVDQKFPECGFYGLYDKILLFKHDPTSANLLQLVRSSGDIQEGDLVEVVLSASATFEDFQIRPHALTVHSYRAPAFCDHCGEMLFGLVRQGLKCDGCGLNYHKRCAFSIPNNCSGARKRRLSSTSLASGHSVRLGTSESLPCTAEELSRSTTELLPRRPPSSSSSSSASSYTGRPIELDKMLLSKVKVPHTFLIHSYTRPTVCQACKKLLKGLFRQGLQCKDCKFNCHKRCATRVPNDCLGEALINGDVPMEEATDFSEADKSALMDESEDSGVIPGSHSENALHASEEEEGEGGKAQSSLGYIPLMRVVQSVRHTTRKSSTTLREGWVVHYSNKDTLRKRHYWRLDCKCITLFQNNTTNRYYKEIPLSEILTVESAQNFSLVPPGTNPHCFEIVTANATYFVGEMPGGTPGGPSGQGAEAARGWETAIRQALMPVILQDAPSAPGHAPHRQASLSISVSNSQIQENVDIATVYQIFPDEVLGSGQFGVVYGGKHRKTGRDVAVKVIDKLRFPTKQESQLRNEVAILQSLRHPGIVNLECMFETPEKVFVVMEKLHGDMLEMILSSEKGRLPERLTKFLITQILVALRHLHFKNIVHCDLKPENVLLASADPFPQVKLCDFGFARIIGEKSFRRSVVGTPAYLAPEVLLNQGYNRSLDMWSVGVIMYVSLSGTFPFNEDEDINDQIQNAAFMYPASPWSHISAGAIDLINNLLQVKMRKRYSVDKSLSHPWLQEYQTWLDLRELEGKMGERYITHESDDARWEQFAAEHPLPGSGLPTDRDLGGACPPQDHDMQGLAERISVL
Chain of Phospholipase A2 (Sus scrofa) (A0A8D1VEY7 as listed by the source): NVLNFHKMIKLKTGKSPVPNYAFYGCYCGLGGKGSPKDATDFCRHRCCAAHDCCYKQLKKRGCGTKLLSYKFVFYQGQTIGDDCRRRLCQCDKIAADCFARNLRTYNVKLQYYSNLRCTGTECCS

Compound `CCC(F)(F)c1cc(N2CCC(S(C)(=O)=O)CC2)nc2sc(C(N)=O)c(N)c12` [BI-605906] has a residual activity [1] of 92%, a residual activity [2] of 95% and a residual activity [3] of 100%. The residual activity [4] was 72%, the residual activity [5] was 96% and the residual activity [6] was 91%. The residual activity [7] was 86.6%, the residual activity [8] was 101% and the residual activity [9] was 101%. The residual activity [10] was 101%, the IC50 [11] was 49 nM (active) and the residual activity [12] was 92%. The residual activity [13] was 89%, the residual activity [14] was 108% and the residual activity [15] was 73.8%. The residual activity [16] was 85%, the residual activity [17] was 102% and the residual activity [18] was 96%. It also gave a residual activity [19] of 90.1%, an inhibition [20] of 8.09% and a residual activity [21] of 112%. The inhibition [22] was 8.96%, the residual activity [23] was 86% and the residual activity [24] was 96%. It also gave a residual activity [25] of 96%, a residual activity [26] of 96% and a residual activity [27] of 85%. It also gave a residual activity [28] of 90%, a residual activity ([29]; Compound concentration 1.0 uM) of 85% and a residual activity ([29]; Compound concentration 10.0 uM) of 96%. It also gave a residual activity [30] of 95%, a residual activity [31] of 93% and a residual activity ([32]; Compound concentration 1.0 uM) of 92%. For the same compound, the residual activity ([32]; Compound concentration 10.0 uM) was 95%, the residual activity ([33]; Compound concentration 1.0 uM) was 99% and the residual activity ([33]; Compound concentration 10.0 uM) was 96%. It also gave a residual activity [34] of 92%, a residual activity [35] of 96% and a residual activity [36] of 91%. It also gave a residual activity [37] of 92%, a residual activity [38] of 93% and a residual activity [39] of 91%. For the same compound, the residual activity [40] was 103% and the residual activity [41] was 85%.
